The test system of data set [1] is MH-22A (mouse hepatoma). Kind of data set: Cytotoxicity, crystal violet (CV) assay, MH-22A. The data set is classed as cell-based. As to conditions: Mus musculus, 72 h exposure, read-out: MH-22A IC50 (CV). On the procedure: (§1) After incubation, the staining solution was removed. The cells were washed 4 times with water.
The test system of data set [2] is HT-1080 (human lung fibrosarcoma). Kind of data set: Cytotoxicity, crystal violet (CV) assay, HT-1080. As to conditions: Homo sapiens, HT-1080, 72 h, read-out: HT-1080 IC50 (CV).
Experimental: (§3) IC50 is the compound concentration (μg/ml) at which 50% of the cells die. […] CV staining can be used to quantify the total DNA of the remaining population and thus is used to determine the number of live cells based on the concentration of the dye which remains after staining.
(§4) Tumor cell lines HT-1080 (human connective tissue fibrosarcoma, ATCC® CCL-121™) and MH-22A (mouse hepatocarcinoma, ECACC, cat. Nr. 96121721) were used.
(§5) HT-1080 and MH-22A cells were seeded in 96-well plates in Dulbecco's modified Eagle's (DMEM) medium containing 10% fetal bovine serum and 4 mM L-glutamine, without antibiotics, and cultivated for 72 h by exposure to different concentrations of compounds. Cell viability was measured using 3-(4,5-dimethylthiazol-2-yl)-2,5-diphenyltetrazolinium bromide (MTT). In brief, after incubating with compounds, the culture medium was removed and fresh medium with 0.2 mg/ml MTT was added in each well of the plate. After incubation (3 h, 37°C, 5% CO2), the medium with MTT was removed, and 200 μl DMSO was added at once to each sample. The samples were tested at 540 nm on a Tecan Infinite M1000 multiplate reader. The IC50 was calculated using the program GraphPad Prism® 3.0.
(§6) For the CV assay, cells were stained with 0.05% crystal violet (Sigma-Aldrich) in 30% methanol for 20 minutes at room temperature. After incubation, the staining solution was removed. The cells were washed 4 times with water. For dye solubilization, 200 μl of a solubilizing solution (0.1 M citrate buffer, pH 4.2 in 50% ethanol; 1 : 1 v/v) was added. The absorbance of the solution was measured using a Tecan Infinite M1000 multiplate spectrophotometer at a wavelength of 570 nm [21].
For data set [3] the test system is unchanged. Kind of data set: Cytotoxicity, MTT assay, HT-1080. It counts as cell-based. The following applies: Homo sapiens, HT-1080, 72 h exposure, read-out: HT-1080 IC50 (MTT). An excerpt: (§2) Reduction takes place only when mitochondrial reductase enzymes are active, and therefore, conversion is directly related to the number of viable cells which can be quantified by the absorbance of the solution (between λ = 500 and 600 nm) using a spectrophotometer.
On the technique in general: Tetrazolium assays rely on reduction of a dye to a coloured formazan, in cell work by metabolically active cells.

Data set [4] has as its system MH-22A (mouse hepatoma). The data set is described as follows: Cytotoxicity, MTT assay, MH-22A. It counts as cell-based. As to conditions: Mus musculus, 72 h exposure, read-out: MH-22A IC50 (MTT).
Excerpt: as §2

The subject of data set [5] is NIH3T3 (mouse embryonic fibroblast). The data set is described as follows: Basal cytotoxicity test, Neutral Red Uptake (NRU) assay. As to conditions: for IC50: Mus musculus, NIH3T3, 24 h.
Data set [6] can be described thus: in vitro. The following applies: mouse. An excerpt: Data from the in vitro tests were used for estimating the starting dose for acute oral systemic toxicity tests in the rodent. The in vivo starting dose is an estimated LD50 value calculated by inserting the in vitroIC50 value into a regression formula: log LD50 (mM/kg) = 0.439 log IC50 (mM) + 0.621 [23–25]. […] Using an alternative in vitro method allows the comparison between possibly toxic new compounds and selecting compounds for further study vastly reducing the number of animal experiments.
Additionally, the compound influence on “normal” mouse fibroblasts (NIH3T3) was estimated for the studies of structure-activity relationships and exploration of the effect of substituents.

A short description of data set [7]: in vitro. As to conditions: human and mouse, HT-1080 cells and MH-22A cells (the value covers both lines); summarises both cell lines, CV and MTT; read-out: cytotoxicity on cancer cell lines HT-1080 and MH-22A. The data set is classed as cell-based. The protocol:
as §1

Data set [8] in a line: Cytotoxicity, crystal violet (CV) assay, MH-22A. The following applies: mouse, MH-22A cells (hepatoma); summarises CV and MTT values; read-out: cytotoxicity towards MH-22A cells. It counts as cell-based, mouse. On the procedure:
as §1

A short description of data set [9]: Cytotoxicity, crystal violet (CV) assay, HT-1080. As to conditions: human, HT-1080 cells (fibrosarcoma).
Experimental: as §3, §4, §5, §6
The mark [10] stands for this setting: read-out: NIH3T3 IC50 (NR), Table 3, 24 h exposure.
Setting [11] is: NIH3T3 LD50, Table 3, calculated from NIH3T3 IC50 by regression formula.

Read-outs that look alike come from different tables or passages of the source.

`CCCCCCCCCCCCCCCCOC(=O)/C=C(\N)C[N+](C)(C)C1CCCCC1` [compound 39, (Z,E)-N-(2-Amino-4-(hexadecyloxy)-4-oxobut-2-en-1-yl)-N,N-dimethylcyclohexanaminium chloride]: the IC50 in data set [1] (Table 3) amounted to 1 ± 0.6 µg/mL; in data set [2], 0.35 ± 0.06 µg/mL; in [3] (Table 3) it was 0.5 ± 0.1 µg/mL; in data set [4] (Table 3), 0.2 ± 0.06 µg/mL; in data set [5] (setting [10]), 0.7 ± 0.1 µg/mL. Moreover, the LD50 (commonly the dose at which mortality reaches 50%) in [6] (setting [11]) is 97 mg/kg.
Take `CCCCCCCCCCCC[N+](C)(C)C/C(N)=C/C(=O)OCCCCCCCCCC` [compound 48, (Z,E)-N-(2-Amino-4-(decyloxy)-4-oxobut-2-en-1-yl)-N,N-dimethyldodecan-1-aminium chloride]: the figures for the IC50 in data set [1] (Table 3), in data set [2] and in data set [5] (setting [10]) were 2 ± 0.2 µg/mL, 3 ± 0.4 µg/mL and 17 ± 3 µg/mL, respectively. Besides, in data set [6] (setting [11]), the LD50 was 485 mg/kg.
Consider `CCCCCCCCCCCCOC(=O)c1c(C[n+]2ccccc2)nc(C[n+]2ccccc2)c(C(=O)OCCCCCCCCCCCC)c1-c1ccccc1.[Br-].[Br-]` [compound 27, 1,1’-((3,5-Bis(dodecyloxycarbonyl)-4-phenylpyridine-2,6-diyl)bis(methylene))-bis(pyridin-1-ium)dibromide], for which the IC50 worked out at 3 ± 0.3 µg/mL in [1] (Table 1); 3.2 ± 0.8 µg/mL in [2]; 3.1 ± 0.5 µg/mL in data set [3] (Table 1); 3.3 ± 0.4 µg/mL in data set [4] (Table 1); 900 ± 42 µg/mL in [5] (read-out: NIH3T3 IC50 (NR)). For the same molecule, in [7], the IC50 at 72 h is ~3 µg/mL. Also, the “toxicity to noncancerous NIH3T3 cells (in words)” value in data set [5] is given as “not harmful at all”. Besides, the 50% lethal dose (LD50) in [6] (LD50 (calculated, NIH3T3), calculated from NIH3T3 IC50) was 3950 mg/kg.
As to `CCCCCCCCCCCCOC(=O)C1=C(C[n+]2ccc(C)cc2)NC(C[n+]2ccc(C)cc2)=C(C(=O)OCCCCCCCCCCCC)C1c1ccccc1.[Br-].[Br-]` [compound 12, 1,1'-((3,5-Bis((dodecyloxy)carbonyl)-4-phenyl-1,4-dihydropyridine-2,6-diyl)bis(methylene))bis(4-methylpyridin-1-ium) dibromide], the figures for the IC50 at 72 h in data set [8] and in data set [9] were 29 to 40 µg/mL and 5 to 10 µg/mL, respectively. In addition, the IC50 in [1] (Table 1) was determined as 40 ± 2 µg/mL; in data set [2], 10 ± 2 µg/mL; in [3] (Table 1) it was 5 ± 1 µg/mL; in [4] (Table 1) it was 29 ± 2 µg/mL; in data set [5] (read-out: NIH3T3 IC50 (NR)) it was 79 ± 11 µg/mL.
Regarding `CCCCCCCCCCCCOC(=O)C1=C(C[n+]2cccc(C(C)=O)c2)NC(C[n+]2cccc(C(C)=O)c2)=C(C(=O)OCCCCCCCCCCCC)C1c1ccccc1.[Br-].[Br-]` [compound 14, 1,1'-((3,5-Bis((dodecyloxy)carbonyl)-4-phenyl-1,4-dihydropyridine-2,6-diyl)bis(methylene))bis(3-acetylpyridin-1-ium) dibromide], the IC50 at 72 h in data set [8] is 50 to 100 µg/mL; in data set [9], ~3 µg/mL. The IC50 is 100 ± 13 µg/mL in data set [1] (Table 1); 3 ± 0.4 µg/mL in data set [2]; 3 ± 0.3 µg/mL in [3] (Table 1); 49 ± 9 µg/mL in data set [4] (Table 1); 922 ± 24 µg/mL in data set [5] (read-out: NIH3T3 IC50 (NR)). Moreover, the “toxicity to noncancerous NIH3T3 cells (in words)” value in [5] is “practically nontoxic”.
On to `CCCCCCCCCCCCOC(=O)/C=C(\N)C[n+]1ccccc1` [compound 47, (Z,E)-1-(2-Amino-4-(dodecyloxy)-4-oxobut-2-en-1-yl)pyridin-1-ium iodide], for which the IC50 is 2 ± 0.1 µg/mL in data set [1] (Table 3), 3 ± 0.4 µg/mL in [2] and 14 ± 9 µg/mL in data set [5] (setting [10]). In addition, the LD50 in data set [6] (setting [11]) is 403 mg/kg.
Consider `CCCCCCCCCCCCCCCCOC(=O)/C=C(\N)C[N+](C)(C)CCCCCCCCCCCC` [compound 45, (Z,E)-N-(2-Amino-4-(hexadecyloxy)-4-oxobut-2-en-1-yl)-N,N-dimethyldodecan-1-aminium chloride], for which the “IC50 in NIH3T3 cell lines” value in [5] is given as “around 30 μg/ml”. Also, the IC50 in [5] (setting [10]) was determined as 25 ± 9 µg/mL. Also, the 50% lethal dose (LD50) in data set [6] (setting [11]) is 573 mg/kg.
In the case of `CCCCCCCCCCCCCCCCOC(=O)/C=C(\N)C[N+](C)(C)CCCCCC` [compound 43, (Z,E)-N-(2-Amino-4-(hexadecyloxy)-4-oxobut-2-en-1-yl)-N,N-dimethylhexan-1-aminium chloride], the IC50 in data set [1] (Table 3) came to 2 ± 0.2 µg/mL; in [2] it was 3 ± 0.6 µg/mL; in data set [3] (Table 3), 2 ± 0.4 µg/mL; in data set [4] (Table 3) it was 1 ± 0.2 µg/mL; in [5] (setting [10]), 21 ± 6 µg/mL. Also, the LD50 in [6] (setting [11]) is 538 mg/kg.

The values are drawn from paper PMC7790557, “Pleiotropic Properties of Amphiphilic Dihydropyridines, Dihydropyridones, and Aminovinylcarbonyl Compounds” (Oxidative Medicine and Cellular Longevity, 2020).
